Data on 39 molecules can be found in patent EP0970046B1, “N-HYDROXY-2-(ALKYL, ARYL, OR HETEROARYL SULFANYL, SULFINYL OR SULFONYL)-3-SUBSTITUTED ALKYL, ARYL OR HETEROARYLAMIDES AS MATRIX METALLOPROTEINASE INHIBITORS” (Wyeth Holdings Corporation, priority 1997, dated 1998).

The target in one assay is MMP 13 (Homo sapiens, UniProt P45452). Nature of the assay: MMP 13 inhibition (HTS; method not described). The class given is biochemical. The following applies: 0.2 µM, HTS; for inhibition at 0.2 µM: read-out: MMP 13 % inhibition at 0.2 µM (HTS).
A further assay concerns the target T1, TACE (Homo sapiens, UniProt P78536).
T1 construct: purchased Immunex
Nature of the assay: Procedure for Measuring TACE Inhibition. In kind it is biochemical. Here is the method:
Using 96-well black microtiter plates, each well receives a solution composed of 10 µL TACE (Immunex, final concentration 1µg/mL), 70µL Tris buffer, pH 7.4 containing 10% glycerol (final concentration 10 mM), and 10 µL of test compound solution in DMSO (final concentration 1µM, DMSO concentration <1%) and incubated for 10 minutes at room temperature. The reaction is initiated by addition of a fluorescent peptidyl substrate (final concentration 100 µM) to each well and then shaking on a shaker for 5 sec. The reaction is read (excitation 340 nm, emission 420 nm) for 10 min. and the increase in fluorescence over time is plotted as a linear line. The slope of the line is calculated and represents the reaction rate. The linearity of the reaction rate is confirmed (r^2 >0.85). The mean (x±sem) of the control rate is calculated and compared for statistical significance (p<0.05) with drug-treated rates using Dunnett's multiple comparison test.

[1] abbreviates: read-out: TACE % inhibition at 1 µM, 1 µM, Examples 169-240.
The mark [2] stands for this setting: read-out: TACE % inhibition at 1 micromolar.
Setting [3] is: Examples 169-240, read-out: TACE IC50.

Read-outs that look alike come from different tables or passages of the source.

T1 sequence (P78536 215-824): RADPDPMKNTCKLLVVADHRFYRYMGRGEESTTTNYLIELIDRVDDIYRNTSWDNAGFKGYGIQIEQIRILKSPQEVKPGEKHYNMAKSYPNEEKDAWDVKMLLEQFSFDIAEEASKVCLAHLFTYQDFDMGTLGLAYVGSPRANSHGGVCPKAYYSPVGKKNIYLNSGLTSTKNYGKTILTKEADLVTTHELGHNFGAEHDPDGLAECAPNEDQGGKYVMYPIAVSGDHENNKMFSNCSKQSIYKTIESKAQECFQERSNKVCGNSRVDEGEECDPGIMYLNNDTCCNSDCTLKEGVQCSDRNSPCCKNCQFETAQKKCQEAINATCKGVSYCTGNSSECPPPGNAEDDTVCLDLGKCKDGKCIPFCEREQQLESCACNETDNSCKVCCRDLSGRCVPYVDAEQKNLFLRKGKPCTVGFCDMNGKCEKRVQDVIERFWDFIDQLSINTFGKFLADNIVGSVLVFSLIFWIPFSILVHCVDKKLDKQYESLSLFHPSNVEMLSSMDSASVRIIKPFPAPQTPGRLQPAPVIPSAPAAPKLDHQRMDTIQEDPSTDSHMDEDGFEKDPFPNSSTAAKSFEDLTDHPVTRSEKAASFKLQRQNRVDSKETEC

In the case of “(1-Hydroxycarbamoyl-propane-1-sulfinyl)-propionic acid hydroxyamide [Example 123]”, the “MMP 13 % inhibition at 0.2 µM (HTS)” value at MMP 13 came out at 0%.

As to `CCCCCCC(C(=O)NO)S(=O)(=O)c1ccc(OCc2ccccc2)cc1` (stereo not drawn) [Example 208, 2-(4-Benzyloxy-phenylsulfonyl)-octanoic acid hydroxyamide], the inhibition (in general, the relative decrease from the control value, in per cent) at 1 µM at TACE (setting [1]) was found to be 67.7%.

Take `N=C(N)NCCCC(C(=O)NO)S(=O)(=O)c1ccccc1Br` (stereo not drawn) [Example 159, 2-(2-Bromosulfonyl)-5-guanidino-pentanoic acid hydroxyamide]: the inhibition at 0.2 µM on MMP 13 was 49%.

As to “3-(1-Hydroxycarbamoyl-heptylsulfinyl)-benzoicacid hydroxyamide [Example 188]”, on TACE (1 µM, Examples 169-240), the “TACE % inhibition at 1 µM” value stood at 16.2%.

For `CCCCCCC(Sc1cc(Cl)ccc1Cl)C(=O)NO` (stereo not drawn) [Example 160, 2-(2,5-dichlorobenzenesulfanyl)-octanoic acid hydroxyamide], the inhibition at 0.2 µM on MMP 13 was found to be 14%.

For `N=C(N)NCCCC(Sc1ccccc1Br)C(=O)NO` (stereo not drawn) [Example 157, 2-(2-Bromosulfanyl)-5-guanidino-pentanoic acid hydroxyamide], the inhibition at 0.2 µM at MMP 13 was found to be 19%.

Turning to `CCCCCCCCC(C(=O)NO)S(=O)(=O)c1cccc(OC)c1` (stereo not drawn) [Example 142, 2-(3-Methoxy-benzenesulfonyl)decanoic acid hydroxamide], the inhibition at 0.2 µM on MMP 13 was 69%.

On to `CCCCCCC(C(=O)NO)S(=O)(=O)c1ccc(OC(CC)CC)cc1` (stereo not drawn) [Example 219, 2-[4-(1-Ethyl-propoxy)-benzenesulfonyl]-octanoic acid hydroxyamide], for which, on TACE (setting [1]), the inhibition at 1 µM worked out at 7.3%.

Take `COc1ccc(CS(=O)(=O)C(C)(Cc2ccccc2)C(=O)NO)cc1` (stereo not drawn) [Example 41, N-Hydroxy-2-(4-methoxy-phenylmethanesulfonyl)-2-methyl-3-phenyl propionic acid hydroxamide]: the inhibition at 1 µM at TACE (setting [2]) is 15.5%.

In the case of `CCCCCCC(Sc1ccc(OCCCC)cc1)C(=O)NO` (stereo not drawn) [Example 200, 2-(4-Butoxy-benzenesulfanyl)-octanoic acid hydroxyamide], the “TACE % inhibition at 1 µM” value at TACE (1 µM, Examples 169-240) was 37.9%.

With `CCCCOc1ccc(S(=O)(=O)C2(C(=O)NO)CCN(Cc3ccc(F)cc3)CC2)cc1` [Example 100, 1-(4-Fluoro-benzyl)-4-(4-butoxy-benzenesulfonyl)-piperidine-4-carboxylic acid hydroxyamide], the inhibition at 1 µM at TACE (setting [2]) is 39.5%.

As for `CCCCCCC(C(=O)NO)[S+]([O-])c1ccc(OCCCc2ccccn2)cc1` (stereo not drawn) [Example 207, 2-[4-(3-Pyridin-2-yl-propoxy)-benzenesulfinyl]-octanoic acid hydroxyamide], at TACE (setting [1]), the inhibition at 1 µM was -6.3%.

Regarding `COc1ccc(S(=O)(=O)C(C)(Cc2cccnc2)C(=O)NO)cc1` (stereo not drawn) [Example 61, N-hydroxy-2-(4-methoxy-benzenesulfonyl)-2-methyl-3-pyridin-3-yl-propionamide], the inhibition at 1 µM at TACE (setting [2]) is 17.2%.

In the case of `COc1ccc(S(=O)(=O)C2(C(=O)NO)CCN(C)CC2)cc1` [Example 97, 1-Methyl-4-(4-methoxy-benzenesulfonyl)-piperidine-4-carboxylic acid hydroxyamide], the inhibition at 1 µM at TACE (setting [2]) worked out at 20.2%.

With `CCCCCCC(C(=O)NO)S(=O)(=O)c1ccc(-c2ccc(Cl)s2)cc1` (stereo not drawn) [Example 224, 2-[4-(5-Chloro-thiophen-2-yl)-benzenesulfonyl]-octanoic acid hydroxyamide], the IC50 at TACE (setting [3]) was determined as 404 nM. The inhibition at 1 µM at TACE (setting [1]) is 75%.

For the molecule `CCCCCCCCC(Cc1cccnc1)(C(=O)NO)S(=O)(=O)c1ccc(OC)cc1` (stereo not drawn) [Example 62, 2-(4-Methoxy-benzenesulfonyl)-2-pyridin-3-ylmethyl-decanoic acid hydroxyamide], the IC50 on TACE (read-out: TACE IC 50) was found to be 669 nM.

Turning to `CCCCCCC(C(=O)NO)[S+]([O-])c1ccc(OC2CCN(C)C2)cc1` (stereo not drawn) [Example 215, 2-[4-(1-Methyl-pyrrolidin-3-yloxy)-benzenesulfinyl]-octanoic acid hydroxyamide], the IC50 on TACE (setting [3]) was found to be 895 nM. Further, the inhibition at 1 µM on TACE (setting [1]) was determined as 60.1%.

For the molecule “2,5-Dichloro-thiophene-3-sulfonic acid 4-(1-hydroxycarbamoyl-heptylsulfinyl)-hydroxyamide [Example 236]”, the “TACE % inhibition at 1 µM” value at TACE (1 µM, Examples 169-240) was 35%.

For “(1-Hydroxycarbamoyl-propane-1-sulfonyl)-acetic acid hydroxyamide [Example 120]”, the “TACE % inhibition at 1 µM” value at TACE (1 µM, Examples 110-168) is reported as 19.9%.

Regarding `CCCCCCC(Sc1ccc(OCCN2CCNCC2)cc1)C(=O)NO` (stereo not drawn) [Example 201, 2-[4-(2-Piperazine-1-yl-ethoxy)-benzenesulfanyl]-octanoic acid hydroxyamide], at TACE (1 µM, Examples 169-240), the “TACE % inhibition at 1 µM” value came out at 50.9%.

On to `CCCCCCC(C(=O)NO)[S+]([O-])c1ccc(-c2ccc(Cl)cc2)cc1` (stereo not drawn) [Example 221, 2-(4'-Chloro-biphenyl-4-sulfinyl)-octanoic acid hydroxyamide], for which the IC50 on TACE (setting [3]) was found to be 146 nM. Also, the inhibition at 1 µM on TACE (setting [1]) was 98.9%.

As for `COc1ccc(S(=O)(=O)C(Cc2ccc3ccccc3c2)C(=O)NO)cc1` (stereo not drawn) [Example 40, N-Hydroxy-2-(4-methoxy-benzenesulfonyl)-3-naphthalen-2-yl-propionamide], on TACE (read-out: TACE IC 50), the IC50 amounted to 160 nM.

As for `CCCCCCC(C(=O)NO)S(=O)(=O)c1ccc(OCCCc2ccccn2)cc1` (stereo not drawn) [Example 211, 2-[4-(3-Pyridin-2-yl-propoxy)-benzenesulfonyl]-octanoic acid hydroxyamide], the inhibition at 1 µM on TACE (setting [1]) worked out at 20.7%.

As for `COc1ccc([S+]([O-])C(C(=O)NO)c2ccccc2)cc1` (stereo not drawn) [Example 8, N-Hydroxy-2-(4-methoxy-benzenesulfinyl)-2-phenyl-acetamide], on TACE (setting [2]), the inhibition at 1 µM is 47%.

`CCCCCCC(C(=O)NO)S(=O)(=O)c1ccc(OC2CCN(C)C2)cc1` (stereo not drawn) [Example 218, 2-[4-(1-Methyl-pyrrolidin-3-yloxy)-benzenesulfonyl]-octanoic acid hydroxyamide]: the IC50 on TACE (setting [3]) amounted to 380 nM. In addition, the inhibition at 1 µM on TACE (setting [1]) is 68.7%.

For the molecule `CCCCCCC(C(=O)NO)[S+]([O-])c1ccc(-c2ccc(Cl)s2)cc1` (stereo not drawn) [Example 222, 2-[4-(5-Chloro-thiophen-2-yl)-benzenesulfinyl]-octanoic acid hydroxyamide], on TACE (setting [3]), the IC50 is 212 nM. Besides, the inhibition at 1 µM on TACE (setting [1]) was determined as 89.3%.

With `CCN1CCC(C(=O)NO)(S(=O)(=O)c2ccc(OC)cc2)CC1` [Example 95, 1-Ethyl-4-(4-methoxy-benzenesulfonyl)-piperidine-4-carboxylic acid hydroxyamide], the inhibition at 1 µM at TACE (setting [2]) was determined as 25.4%.

On to `C=CCC(CC=C)(C(=O)NO)S(=O)(=O)c1ccc(OC)cc1` [Example 58, 2-allyl-2-(4-methoxy-benzenesulfonyl)-pent-4-enoic acid hydroxyamide], for which the inhibition at 1 µM at TACE (setting [2]) turned out to be 7.7%.

As for `CCCCCCC(C(=O)NO)[S+]([O-])c1ccc(OCc2ccccc2)cc1` (stereo not drawn) [Example 204, 2-(4-Benzyloxy-phenylsulfinyl)-octanoic acid hydroxyamide], the inhibition at 1 µM on TACE (setting [1]) was 7.75%.

For `CCCCCCC(Sc1ccc(OCCCCCO)cc1)C(=O)NO` (stereo not drawn) [Example 202, 2-[4-(5-Hydroxy-pentyloxy)-phenylsulfanyl]-octanoic acid hydroxyamide], the inhibition at 1 µM on TACE (setting [1]) was 10.6%.

On to “3-(1-Hydroxycarbamoyl-heptylsulfanyl)-benzoic acid hydroxyamide [Example 184]”, for which, at TACE (1 µM, Examples 169-240), the “TACE % inhibition at 1 µM” value came out at 24.8%.

With `COc1ccc(S(=O)(=O)C(Cc2ccccc2)C(=O)NO)cc1` (stereo not drawn) [Example 9, N-Hydroxy-2-(4-methoxy-benzenesulfonyl)-3-phenyl-propionamide], on TACE (setting [2]), the inhibition at 1 µM was 20.3%.

On to `CCN(CC)CCOc1ccc(CC(C)(C(=O)NO)S(=O)(=O)c2ccc(OC)cc2)cc1` (stereo not drawn) [Example 21, N-Hydroxy-2-(4-methoxy-benzenesulfonyl)-2-methyl-3-[4-(2-N,N-diethylamino-ethoxy)-phenyl]-propionamide], for which the inhibition at 1 µM on TACE (setting [2]) was 39%.

Regarding `CCCCCCC(Sc1ccc(NCCCN2CCOCC2)cc1)C(=O)NO` (stereo not drawn) [Example 225, 2-[4-(3-morpholin-4-yl-propylamino)-phenylsulfanyl]-octanoic acid hydroxyamide], on TACE (setting [3]), the IC50 was found to be 96.6 nM. In addition, the inhibition at 1 µM on TACE (setting [1]) is 114%.

`CCCCCCC(C(=O)NO)S(=O)(=O)c1ccc(OCCCC)cc1` (stereo not drawn) [Example 209, 2-(4-Butoxy-benzenesulfonyl)-octanoic acid hydroxyamide]: on TACE (setting [1]), the inhibition at 1 µM was 31.2%.

With `CCCCCCC(C(=O)NO)[S+]([O-])c1ccc(OCCCC)cc1` (stereo not drawn) [Example 205, 2-(4-Butoxy-benzenesulfinyl)-octanoic acid hydroxyamide], at TACE (setting [1]), the inhibition at 1 µM is 84%.

Turning to `COc1ccc(CN2CCC(C(=O)NO)(S(=O)(=O)c3ccc(OC)cc3)CC2)cc1` [Example 101, 4-(4-methoxy-benzenesulfonyl)-1-(4-methoxy-benzyl)-piperidine-4-carboxylic acid hydroxyamide], the IC50 at TACE (read-out: TACE IC 50) is 197 nM.

For `COc1ccc(S(=O)(=O)C(C)(Cc2ccc(OCCN(C(C)C)C(C)C)cc2)C(=O)NO)cc1` (stereo not drawn) [Example 20, N-Hydroxy-2-(4-methoxy-benzenesulfonyl)-2-methyl-3-[4-(2-N,N-diisopropylamino-ethoxy)-phenyl]-propionamide], the inhibition at 1 µM at TACE (setting [2]) worked out at 31%.

In the case of “Ethanesulfonic acid 4(1-hydroxycarbamoyl-heptylsulfanyl)-hydroxyamide [Example 234]”, the “TACE % inhibition at 1 µM” value at TACE (1 µM, Examples 169-240) came out at 18.4%.
